The test relates to IL-1-induced proteoglycan degradation in bovine nasal cartilage. The test can be described thus: Bovine Nasal Cartilage (BNC) assay: inhibition of IL-1-induced proteoglycan degradation (chondroitin sulfate release, 1,9-DMB). As to conditions: Bos taurus, bovine nasal cartilage explants, IL-1β (500 U); for IC50: 48 h with compound + 24 h fresh media, dose responses 10, 1, 0.1 μM. The test is classed as cell-based. From the text: The BNC (bovine nasal cartilage) assay provides a model for evaluating chrondroprotective compounds that block cartilage degradation through inhibition of enzyme activity or by altering the gene expression of the matrix metalloproteinase stromelysin.
Bovine nasal cartilage is obtained from a local slaughter house (Milan, Mich.); cell culture reagents from Gibco (Grand Island, N.Y.); human recombinant Interleukin-1β (IL-1β) from Boehringer Mannheim (Indianapolis, Ind.); DMB from Polysciences (Warrington, Pa.); Falcon 24 well flat-bottom tissue culture plates from Becton Dickinson (Lincoln Park, N.J.); disposable 20-mL scintillation vials from Kimble Glass (Vinland, N.J.); Papain from Sigma (P-3125, St. Louis, Miss.); high purity dimethyl sulfoxide from Burdic & Jackson (081-1, Distributed by Baxter Healthcare, McGraw Park, Ill.); Sarstedt vials for radioimmune assays (Sarstedt, Newton, N.C.); Sarstedt 96-vial aluminum racks (Sarstedt, Newton, N. C.); Cetus Pro/Pette (Perkin Elmer, Norwalk, Conn.).
The assay is accomplished in two phases. The cartilage plugs are first incubated with IL-1 in the presence of compounds. The amount of proteoglycan released is then quantified by measuring chondroitin sulfate present in the media using the 1,9-Dimethylmethylene Blue Assay.
Cartilage Culture. Bovine nasal septum is dissected free of surrounding tissue and wiped with 70% alcohol. A sterile cork borer is used to remove 5-mm cartilage disks of 2 to 3 mm thickness. Explants are equilibrated for 96 hours in F-12 supplemented with 10% fetal calf serum (FCS) and antibiotics at 37° C. in a humidified atmosphere of 95% air and 5% CO2. Explants are then rinsed with 1 mL F-12 Nutrient Mixture (without phenol red) in order to remove traces of FCS. Each treatment group is done in triplicate allowing: controls (500 μL F-12 medium + 110 μL PBS with 0.1% BSA + 7 μL DMSO); IL-1β (500 μL F-12 medium without phenol red + 100 μL IL-1β (500 U) + 7 μL DMSO + 10 μL PBS with 0.1 % BSA); and dose responses (10, 1, and 0.1 μM) (F-12 medium without phenol red + 100 μL IL-1β (500 U) + 7 μL compound dissolved in DMSO + 10 μL PBS with 0.1% BSA), to be tested per each 24-well plate. The cartilage plugs are incubated in the presence of conditioned media (IL-1β + compound) for 48 hours. […]
Quantitation of Cartilage Degradation. The ability of a compound to inhibit proteoglycan released from the cartilage plugs is quantified by measuring chondroitin sulfate. […] This color change is measured using a Titertek Multiscan MCC 340 plate reader at 540 nm. […] It is necessary to dilute (1:5, 1:10) the medium before a […] is performed by adding 10 μL of collected media to 290 μL DMF (16 mg dye/1 L of 0.1M formate buffer, pH 3.5, containing 5 mL ethanol) and reading […]. […]

Bounds are passed on as bounds.

The values that follow come from patent publication US5358964A, “Benzylidene-lactone and their thiocarbonyl analogs as inhibitors of proteoglycan degradation” (Warner-Lambert Company, priority 1993, dated 1994).

As for `Cc1ccc(Cl)c(Nc2ccccc2/C=C2\CCOC2=O)c1Cl` [Example 1, (E)-3-[[2-[(2,6-Dichloro-3-methylphenyl)amino]phenyl]methylene]4,5-dihydro-2(3H)-furanone], the IC50 was determined as 390 nM.

As for `Cc1ccc(Cl)c(Nc2ccccc2/C=C2\CCOC2=S)c1Cl` [Example 2, (E)-3-[[2-[(2,6-Dichloro-3-methylphenyl)amino]phenyl]methylene]-4,5-dihydro-2(3H) -furanthione], the inhibition at 10 µM (@ 10.0 μM, read-out: Percent Inhibition @ μM) was over 50%.

As for `O=C1OCC/C1=C\c1ccccc1Nc1cccc(C(F)(F)F)c1` [Example 3, (E)-4,5-Dihydro-3-[[2-[[3-(trifluoromethyl)phenyl]-amino]phenyl]methylene]-2(3H)-furanone], the IC50 worked out at 520 nM.

Regarding `O=C1OCC/C1=C\c1ccccc1Nc1ccccc1` [Example 4, (E)-4,5-Dihydro-3-[[2-(phenylamino)phenyl]methylene]2(3H) -furanone], where the note is “@ 0.10 μM, read-out: Percent Inhibition @ μM”, the inhibition at 0.1 µM amounted to 70%.

For orientation: IC50 means the concentration that inhibits the measured activity by half. The term inhibition denotes the relative decrease from the control value, in per cent.
